Earlier results on 1 substance are cited in PMC5145181, “Structural Mapping and Functional Characterization of Zebrafish Class B G-Protein Coupled Receptor (GPCR) with Dual Ligand Selectivity towards GLP-1 and Glucagon” (PLoS ONE, 2016).

In data set [1] the test system is hGLP-1R mutant Ser155 to alanine. The following applies: Ser152 in hGCGR = Ser155 in hGLP-1R, mutated to alanine; cited from earlier work. An excerpt:
Among those are TM1-TM7 interaction between Ser152^1.50 and Ser 390^7.47 in which Ser152^1.50 in TM1 in hGCGR forms a hydrogen bond with the backbone of Ser390^7.47 in TM7.

Data set [2] deals with hGLP-1R mutant Asn318 to alanine. Set-up: method as in PMID 23479653. Conditions: Asn318 mutated to alanine, cell surface expression unchanged; cited from earlier work.
A further data set concerns GLP-1R. The following applies: cited from earlier work. An excerpt: Receptors for GLP-1 (GLP-1R) and glucagon (GCGR) belong to the class B GPCRs that mediate the physiological effects of the peptides within the glucagon-secretin peptide family. Their structures are characterized by large amino terminal extracellular domains which are about 140 amino acids long and an intracellular core consisting of a cytoplasmic domain and seven transmembrane helices (7TMs) connected through three extracellular and three intracellular loops.

Data set [3] has as its system zfGPCR (dual zfGLP-1R/GCGR). Conditions: cited from earlier work. The method, then:
Furthermore, exendin-4, an agonist of hGLP-1R, displaced in competitive binding experiments the binding of ^125I-hGLP-1(7–36) amide to the zebrafish receptor with an IC50 of 0.9 nM, which is within a similar concentration range as the one determined in competitive binding experiments with recombinant hGLP-1R [41] and rGLP-1R [23]. However, subsequent phylo ...

As to “exendin-4: peptide exclusively found in the saliva of a lizard; agonist of GLP-1R; purchased from Bachem”, the receptor affinity result in data set [1] is on record as “small reduction of receptor affinity”; in data set [2], “reduced the receptor’s affinity”. For the same substance, the “stimulation of intracellular cAMP, GLP-1 vs exendin-4” value in the data set with GLP-1R is “to a similar degree”. The “IC50 (in words)” value in data set [3] (competitive binding, recombinant zfGPCR, similar to rGLP-1R and hGLP-1R) is “in the low nM range”. For the same substance, the half-inhibitory concentration (IC50) in data set [3] (displacement of 125I-hGLP-1(7–36)amide, read-out: IC50 in competitive binding (earlier characterization of the zfGPCR)) was 900 pM.
